This note sets out measurements from patent US7695899B2, “Methods of identifying and using chemotherapeutic agents” (The Regents of the University of Colorado, a body corporate, priority 2003, dated 2010).

In the experiment the test system is irradiated grp mutant larvae. The experiment in a line: Survival screen of irradiated and non-irradiated grp mutant and wild-type larvae. Type of experiment: in vivo, Drosophila melanogaster. The note with it: colchicine 1.3 μM in cornmeal-agar food; 4,000 Rads of X-rays; cumulative results of three screens; FIG. 1. Here is the method: To obtain correctly aged larvae, embryos are collected at Day 0 from wild-type and grp mutant heterozygous adults for approximately 4 hours in the late afternoon or early evening 4 days prior to experiment. The embryos are allowed to hatch into larvae and the larvae are allowed to develop. The grp mutant heterozygote adults carry a grp mutation on one chromosome and a wild-type grp gene on a balancer chromosome. The balancer chromosome also carries a Green Fluorescent Protein (GFP) transgene.
In the morning of Day 4, food is washed from larvae by using stacked sieves (VWR; USA Standard Testing Sieve: 850, 600, 425, 180 micrometer). […]
At Day 9, the total number of pupae formed are counted (this gives the percentage of larvae that survived into pupae). In the vials with progeny from grp heterozygous parents, the grp heterozygous pupae and the wild-type pupae are identified by virtue of their expression of GFP and are not counted. At Day 14, the number of empty pupae are counted (indicating the number of pupae that eclosed into adults).
Survival is expressed as the percentage of larvae that form pupae, and the percentage of pupae that eclose into adults. […]

In the case of `COc1cc2c(c(OC)c1OC)-c1ccc(OC)c(=O)cc1[C@@H](NC(C)=O)CC2` [colchicine], the “survival of irradiated grp mutant larvae (grp+R) relative to non-irradiated grp mutant larvae (grp-R), wild-type irradiated larvae (SEV+R) and wild-type non-irradiated larvae (SEV-R)” value was “selectively reduces the survival”.
